Values quoted from earlier work, collected in patent US7033983B2, “Detergent compositions” (Unilever Home and Personal Care USA a division of Conopco, …, priority 2002, dated 2006).

Details: highly water-soluble materials; saturated solution in 100 g deionised water at 20° C.

Water Solubility: >100 g/100 g
Compound: NC(N)=O [Urea]
